Laboratory results published in the CheMixHub viscosity set.

Experiment: xn = mol fraction of the nth substance listed

CC(C)CCC[C@@H](C)[C@H]1CC[C@H]2[C@@H]3CC=C4C[C@@H](O)CC[C@]4(C)[C@H]3CC[C@]12C + Cc1ccccc1
viscosity [mPa·s], 101.33 kPa
Conditions	x1 = 0.0038	x1 = 0.00638	x1 = 0.01075	x1 = 0.01353	x1 = 0.01707	x1 = 0.02159	x1 = 0.02737	x1 = 0.03485
298 K	0.567	0.579	0.604	0.616	0.639	0.672	0.716	0.787
303 K	0.534	0.546	0.569	0.579	0.599	0.628	0.668	0.731
313 K	0.478	0.488	0.508	0.515	0.533	0.556	0.591	0.64
323 K	0.432	0.44	0.458	0.464	0.476	0.497	0.523	0.562

CCCCCCCCCCO + Cc1ccccc1
viscosity [mPa·s], 101 kPa
Conditions	298.15 K	308.15 K
x2 = 0.0507	10.3	7.108
x2 = 0.1015	9.101	6.203
x2 = 0.1473	8.207	5.499
x2 = 0.2091	7.146	4.673
x2 = 0.2577	6.303	4.079
x2 = 0.3006	5.584	3.647
x2 = 0.3496	4.913	3.173
x2 = 0.4028	4.195	2.786
x2 = 0.4516	3.678	2.398
x2 = 0.4989	3.222	2.122
x2 = 0.5497	2.797	1.832
x2 = 0.6009	2.439	1.569
x2 = 0.6498	2.13	1.393
x2 = 0.7065	1.819	1.159
x2 = 0.7524	1.537	1.047
x2 = 0.8069	1.308	0.858
x2 = 0.8472	1.071	0.798
x2 = 0.9063	0.807	0.687
x2 = 0.953	0.608	0.585

CC(C)CCC[C@@H](C)[C@H]1CC[C@H]2[C@@H]3CC=C4C[C@@H](O)CC[C@]4(C)[C@H]3CC[C@]12C + ClC(Cl)(Cl)Cl
viscosity [mPa·s], 101.33 kPa
Conditions	x1 = 0.0058	x1 = 0.00978	x1 = 0.0123	x1 = 0.01552	x1 = 0.01963	x1 = 0.02491	x1 = 0.03174
298 K	0.983	1.04	1.077	1.136	1.219	1.328	1.491
303 K	0.912	0.962	0.996	1.045	1.12	1.212	1.355
313 K	0.797	0.836	0.858	0.898	0.953	1.024	1.134
323 K	0.705	0.738	0.753	0.785	0.826	0.881	0.96

COCCOCCO + ClC(Cl)=C(Cl)Cl
298.15 K, 101.33 kPa
Conditions	viscosity [mPa·s]
x1 = 0.0072	0.852
x1 = 0.0147	0.859
x1 = 0.0261	0.869
x1 = 0.0417	0.884
x1 = 0.0604	0.911
x1 = 0.0868	0.948
x1 = 0.1038	0.975
x1 = 0.1347	1.023
x1 = 0.1769	1.092
x1 = 0.2025	1.139
x1 = 0.2433	1.216
x1 = 0.2755	1.279
x1 = 0.3041	1.34
x1 = 0.3353	1.413
x1 = 0.374	1.504
x1 = 0.4127	1.596
x1 = 0.4577	1.712
x1 = 0.4877	1.796
x1 = 0.5213	1.9
x1 = 0.5632	2.03
x1 = 0.5988	2.14
x1 = 0.6333	2.253
x1 = 0.6701	2.366
x1 = 0.7061	2.48
x1 = 0.7414	2.593
x1 = 0.7892	2.754
x1 = 0.8427	2.948
x1 = 0.8844	3.109
x1 = 0.9138	3.225
x1 = 0.9381	3.323
x1 = 0.9613	3.414
x1 = 0.978	3.478
x2 = 0.0115	3.521

CC(C)CCC[C@@H](C)[C@H]1CC[C@H]2[C@@H]3CC=C4C[C@@H](O)CC[C@]4(C)[C@H]3CC[C@]12C + ClC(Cl)Cl
viscosity [mPa·s], 101.33 kPa
Conditions	x1 = 0.00286	x1 = 0.0048	x1 = 0.0081	x1 = 0.0138	x1 = 0.01748	x1 = 0.0223	x1 = 0.02849	x1 = 0.03663
298 K	0.557	0.57	0.594	0.638	0.667	0.709	0.766	0.848
303 K	0.534	0.547	0.568	0.608	0.635	0.673	0.724	0.798
313 K	0.494	0.504	0.522	0.555	0.578	0.609	0.652	0.712
323 K	0.459	0.468	0.483	0.511	0.529	0.555	0.589	0.637

Cc1ccccc1C + ClC(Cl)Cl
298.15 K, 101 kPa
Conditions	viscosity [mPa·s]
x2 = 0.262	0.739
x2 = 0.3694	0.725
x2 = 0.5222	0.6941
x2 = 0.5776	0.682
x2 = 0.6279	0.6691
x2 = 0.6624	0.6592
x2 = 0.7082	0.6482
x2 = 0.7562	0.6348
x2 = 0.7944	0.6224

c1ccc(Oc2ccccc2)cc1 + ClC(Cl)Cl
298.15 K, 101 kPa
Conditions	viscosity [mPa·s]
x1 = 0.3136	2.22
x1 = 0.5696	1.39
x1 = 0.817	0.83

COCCOCCO + ClC=C(Cl)Cl
298.15 K, 101.33 kPa
Conditions	viscosity [mPa·s]
x1 = 0.0091	0.537
x1 = 0.0258	0.553
x1 = 0.0362	0.567
x1 = 0.0477	0.582
x1 = 0.0679	0.61
x1 = 0.0896	0.643
x1 = 0.1146	0.685
x1 = 0.1489	0.742
x1 = 0.187	0.817
x1 = 0.2425	0.926
x1 = 0.2811	1.009
x1 = 0.3123	1.082
x1 = 0.3733	1.237
x1 = 0.4192	1.356
x1 = 0.4582	1.467
x1 = 0.4988	1.587
x1 = 0.541	1.725
x1 = 0.5789	1.849
x1 = 0.608	1.948
x1 = 0.6351	2.044
x1 = 0.6756	2.194
x1 = 0.7372	2.433
x1 = 0.7781	2.596
x1 = 0.811	2.73
x1 = 0.8467	2.882
x1 = 0.8774	3.015
x1 = 0.9167	3.194
x1 = 0.9481	3.329
x1 = 0.9733	3.449
x2 = 0.0104	3.531

CC(C)CCC[C@@H](C)[C@H]1CC[C@H]2[C@@H]3CC=C4C[C@@H](O)CC[C@]4(C)[C@H]3CC[C@]12C + ClCCCl
viscosity [mPa·s], 101.33 kPa
Conditions	298 K	303 K	313 K	323 K
x1 = 0.00307	0.794	0.743	0.659	0.587
x1 = 0.00516	0.812	0.761	0.673	0.599
x1 = 0.00648	0.825	0.772	0.682	0.608
x1 = 0.00816	0.84	0.785	0.692	0.619

c1ccc(Oc2ccccc2)cc1 + NCc1ccccc1
303.15 K, 101 kPa
Conditions	viscosity [mPa·s]
x2 = 0.1488	2.696
x2 = 0.2823	2.409
x2 = 0.4028	2.179
x2 = 0.512	1.991
x2 = 0.6114	1.839
x2 = 0.7024	1.714
x2 = 0.786	1.613
x2 = 0.8629	1.531
x2 = 0.934	1.465

Cc1ccc(Cl)cc1 + Nc1cccc(Cl)c1
viscosity [mPa·s], 100 kPa
Conditions	x2 = 0.0757	x2 = 0.1649	x2 = 0.2579	x2 = 0.3519	x2 = 0.4697	x2 = 0.5707	x2 = 0.6749	x2 = 0.7826	x2 = 0.8935
303.15 K	1.052	1.369	1.698	2.029	2.441	2.791	3.15	3.518	3.895
308.15 K	0.968	1.253	1.549	1.847	2.217	2.531	2.853	3.184	3.521
313.15 K	0.899	1.152	1.414	1.677	2.003	2.28	2.564	2.854	3.15
318.15 K	0.823	1.045	1.273	1.502	1.786	2.027	2.274	2.526	2.782

CCCCCC(=O)[O-].[NH3+]CCO + O
viscosity [mPa·s], 101 kPa
Conditions	x1 = 0.0053	x1 = 0.0114	x1 = 0.0176	x2 = 0.9074	x2 = 0.9364	x2 = 0.9583	x2 = 0.9753
293.15 K	1.44	1.692	1.82	12.85	6.672	3.858	2.546
298.15 K	1.26	1.5	1.68	10.73	5.73	3.306	2.04
303.15 K	1.11	1.35	1.494	9.048	4.92	2.868	1.806

OCCOCCOCCOCCOCCO + O
viscosity [mPa·s], 100 kPa
Conditions	293.15 K	298.15 K	303.15 K	308.15 K	313.15 K	318.15 K	323.15 K
x2 = 0.023	70.88	54.12	42.28	33.63	27.22	22.34	18.57
x2 = 0.081	72.83	55.72	43.21	34.21	27.55	22.56	18.68
x2 = 0.144	71.38	54.33	42.28	33.53	27.01	22.11	18.34
x2 = 0.166	70.74	53.66	41.76	33.1	26.67	21.83	18.08
